Measured values taken from PubChem BioAssay AID1259411 (Chemical Carcinogenesis Research Information System (CCRIS), 2018).
The source made the active and inactive calls. No rule for the calls is given here.

Tested on: rodent carcinogenicity bioassays, tumor incidence
Assay: CCRIS carcinogenicity studies
In short: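 Archive of carcinogenicity, mutagenicity, tumor promotion and tumor inhibition results drawn from journals, NCI reports and other sources, expert-reviewed; covers 1985-2011 and is no longer updated.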

Question: COC(=O)C(C)(C)Oc1ccc(-c2ccc(Cl)cc2)cc1 was tested. Which carcinogen call (Species: RAT, Strain/Sex: F344/MALE, Route: ORAL, Dose: 0.1% IN DIET FOR 75 WK, Tumor Site: Type of Lesion: LIVER: HEPATOCELLULAR CARCINOMA) did it give?
Answer: The carcinogen call was “active; positive”.

Question: Which results are given for CCCN(CCC)C(=O)SCC?
Answer: carcinogen call (Species: Mouse, Strain/Sex: Crl:CD-1/Female (60/Group), Route: Oral, Dose: 0, 200, 600, 1800 ppm in diet for 73 wks, study duration 73 wks, Dose: 0, 200, 600, 1800 ppm in diet for 73 wks, study duration 73 wks): inactive; negative; carcinogen call (Species: Mouse, Strain/Sex: Crl:CD-1/Male (60/Group), Route: Oral, Dose: 0, 200, 600, 1800 ppm in diet for 73 wks, study duration 73 wks, Dose: 0, 200, 600, 1800 ppm in diet for 73 wks, study duration 73 wks): inactive; negative; carcinogen call (Species: Rat, Strain/Sex: Crl:CD (SD) BR/Female (90/Group), Route: Oral, Dose: 0, 9, 18, 36, 72 mg/kg/day in diet for 2 yr, study duration 2 yr, Dose: 0, 9, 18, 36, 72 mg/kg/day in diet for 2 yr, study duration 2 yr): inactive; negative; carcinogen call (Species: Rat, Strain/Sex: Crl:CD (SD) BR/Male (90/Group), Route: Oral, Dose: 0, 9, 18, 36, 72 mg/kg/day in diet for 2 yr, study duration 2 yr, Dose: 0, 9, 18, 36, 72 mg/kg/day in diet for 2 yr, study duration 2 yr): inactive; negative

Question: What does the source list for CC(C)CCCCCCOC(=O)c1ccccc1C(=O)OCCCCCCC(C)C?
Answer: carcinogen call (Species: RAT, Strain/Sex: F344/FEMALE, Route: ORAL, Dose: 0, 0.03, 0.3, 0.6% IN DIET FOR DURATION OF STUDY (STUDY DURATION: 24 MO), Dose: 0, 0.03, 0.3, 0.6% IN DIET FOR DURATION OF STUDY (STUDY DURATION: 24 MO)): inactive; negative; carcinogen call (Species: RAT, Strain/Sex: F344/MALE, Route: ORAL, Dose: 0, 0.03, 0.3, 0.6% IN DIET FOR DURATION OF STUDY (STUDY DURATION: 24 MO), Dose: 0, 0.03, 0.3, 0.6% IN DIET FOR DURATION OF STUDY (STUDY DURATION: 24 MO)): inactive; negative

Question: O=C1NCCN1/N=C/c1ccc([N+](=O)[O-])o1 was tested. Which carcinogen call (Species: RAT, Route: ORAL, Tumor Site: Type of Lesion: LYMPHATIC SYSTEM: LYMPHOBLASTIC LYMPHOMA, MAMMARY GLAND) did it give?
Answer: Its carcinogen call is “active; positive”.

Question: Which carcinogen call (Species: HAMSTER, Route: INTRAPERITONEAL, INTRAVENOUS, Tumor Site: Type of Lesion: LIVER) does the source give for CN(N=O)C(=O)N[C@@H](C=O)[C@@H](O)[C@H](O)[C@H](O)CO here?
Answer: The carcinogen call was “active; positive”.

Question: And the carcinogen call (Species: MOUSE, Route: INTRAPERITONEAL, Tumor Site: Type of Lesion: KIDNEY, LUNG, UTERUS, Tumor Site: Type of Lesion: KIDNEY, LUNG, UTERUS)?
Answer: Its carcinogen call is “active; positive”.

Question: What about the carcinogen call (Species: RAT, Route: INTRAPERITONEAL, Tumor Site: Type of Lesion: KIDNEY, LIVER) of the same compound?
Answer: Its carcinogen call is “active; positive”.

Question: What about the carcinogen call (Species: RAT, Route: INTRAVENOUS, Tumor Site: Type of Lesion: KIDNEY) of the same compound?
Answer: Its carcinogen call is “active; positive”.

Question: What about the carcinogen call (Species: RAT, Strain/Sex: SHR/MALE, Route: INTRAPERITONEAL, Dose: 0, 37.5, 50, 62.5, 75 MG/KG INJECTED ONCE (STUDY DURATION: 12 MO), Dose: 0, 37.5, 50, 62.5, 75 MG/KG INJECTED ONCE (STUDY DURATION: 12 MO), Tumor Site: Type of Lesion: LIVER: HEPATOMA, KIDNEY: NEPHROBLASTOMA, PANCREATIC ISLETS: TUMOR, Tumor Site: Type of Lesion: LIVER: HEPATOMA, KIDNEY: NEPHROBLASTOMA, PANCREATIC ISLETS: TUMOR) of the same compound?
Answer: The carcinogen call was “active; positive”.

Question: What about the carcinogen call (Species: RAT, Strain/Sex: WISTAR/MALE, Route: INTRAPERITONEAL, Dose: 0, 100, 125, 137.5, 150 MG/KG INJECTED ONCE (STUDY DURATION: 12 M0), Dose: 0, 100, 125, 137.5, 150 MG/KG INJECTED ONCE (STUDY DURATION: 12 M0), Tumor Site: Type of Lesion: LIVER: HEPATOMA, KIDNEY: NEPHROBLASTOMA) of the same compound?
Answer: The carcinogen call was “active; positive”.

Question: O=[N+]([O-])c1c2ccc3ccccc3c2cc2ccc3ccccc3c12 was tested. Which carcinogen call (Species: MOUSE, Strain/Sex: B6C3F1/MALE, Route: INTRAPERITONEAL, Dose: 0, 400 NMOL IN 35 µL DMSO (TOTAL DOSE) ADMINISTERED IN DOSES OF 1/7, 2/7, AND 4/7 OF THE TOTAL DOSE ON DAYS 1,8, AND 15, Tumor Site: Type of Lesion: LIVER :ADENOMA) did it give?
Answer: The carcinogen call was “active; positive”.

Question: Which results are given for FC(F)(F)CCl?
Answer: carcinogen call (Species: RAT, Strain/Sex: WISTAR/FEMALE, Route: GAVAGE, Dose: 300 MG/KG IN CORN OIL 5/WK FOR 52 WK, Tumor Site: Type of Lesion: UTERUS: ADENOCARCINOMA): active; positive; carcinogen call (Species: RAT, Strain/Sex: WISTAR/MALE, Route: GAVAGE, Dose: 300 MG/KG IN CORN OIL 5/WK FOR 52 WK, Tumor Site: Type of Lesion: TESTES: INTERSTITIAL CELL TUMOR): active; positive

Question: With CCC(C)OC(=O)N1CCCCC1CCO (stereo not drawn) as the compound, how does the carcinogen call (Species: MOUSE, Strain/Sex: CD-1/FEMALE, Route: DERMAL, Dose: 0, 50, 100, 200 MG/KG BW FOR 78 WK (STUDY DURATION: 78 WK), Dose: 0, 50, 100, 200 MG/KG BW FOR 78 WK (STUDY DURATION: 78 WK)) read?
Answer: The carcinogen call was “inactive; negative”.

Question: What about the carcinogen call (Species: MOUSE, Strain/Sex: CD-1/MALE, Route: DERMAL, Dose: 0, 50, 100, 200 MG/KG BW FOR 78 WK (STUDY DURATION: 78 WK), Dose: 0, 50, 100, 200 MG/KG BW FOR 78 WK (STUDY DURATION: 78 WK)) of the same compound?
Answer: The carcinogen call was “inactive; negative”.

Question: What about the carcinogen call (Species: RAT, Strain/Sex: SPRAGUE-DAWLEY/FEMALE, Route: DERMAL, Dose: 0, 50, 100, 200 MG/KG BW FOR 104 WK (STUDY DURATION: 104 WK), Dose: 0, 50, 100, 200 MG/KG BW FOR 104 WK (STUDY DURATION: 104 WK)) of the same compound?
Answer: Its carcinogen call is “inactive; negative”.

Question: And the carcinogen call (Species: RAT, Strain/Sex: SPRAGUE-DAWLEY/MALE, Route: DERMAL, Dose: 0, 50, 100, 200 MG/KG BW FOR 104 WK (STUDY DURATION: 104 WK), Dose: 0, 50, 100, 200 MG/KG BW FOR 104 WK (STUDY DURATION: 104 WK))?
Answer: Its carcinogen call is “inactive; negative”.

Question: How did the carcinogen call (Species: MOUSE, Strain/Sex: SWISS-WEBSTER/FEMALE, Route: DERMAL, Dose: 0, 1% IN 0.1 ML DISTILLED WATER 1/WK FOR 18 MO (STUDY DURATION: 18 MO)) turn out when O=S(=O)(O)c1ccc(N=Nc2c(O)ccc3ccccc23)cc1 was run?
Answer: Its carcinogen call is “inactive; negative”.

Question: What about the carcinogen call (Species: MOUSE, Strain/Sex: SWISS-WEBSTER/MALE, Route: DERMAL, Dose: 0, 1% IN 0.1 ML DISTILLED WATER 1/WK FOR 18 MO (STUDY DURATION: 18 MO)) of the same compound?
Answer: The carcinogen call was “inactive; negative”.

Question: For CC(C)CN(N=O)C(N)=O, which carcinogen call (Species: RAT, Strain/Sex: DONRYU/FEMALE, Route: ORAL, Dose: 100, 200, 400 PPM IN DRINKING WATER, Dose: 100, 200, 400 PPM IN DRINKING WATER, Tumor Site: Type of Lesion: DUODENUM: BENIGN HEMANGIOENDOTHELIOMA, MALIGNANT HEMANGIOENDOTHELIOMA) is on record?
Answer: Its carcinogen call is “active; positive”.

Question: For CC(=O)N[C@@H](C=O)[C@@H](O)[C@H](O)[C@H](O)CO, which carcinogen call (Species: Rat, Strain/Sex: F344/Female, Route: Oral, Dose: 0, 2.5, 5% in diet for 104 wk) is on record?
Answer: Its carcinogen call is “inactive; negative”.

Question: What about the carcinogen call (Species: Rat, Strain/Sex: F344/Male, Route: Oral, Dose: 0, 2.5, 5% in diet for 104 wk) of the same compound?
Answer: Its carcinogen call is “inactive; negative”.

Question: What does the source list for Nc1ccc(N)cc1?
Answer: carcinogen call (Species: MOUSE, Strain/Sex: B6C3F1/FEMALE, Route: ORAL, Dose: 0, 625, 1250 PPM IN DIET, Dose: 0, 625, 1250 PPM IN DIET): inactive; negative; carcinogen call (Species: MOUSE, Strain/Sex: B6C3F1/MALE, Route: ORAL, Dose: 0, 625, 1250 PPM IN DIET, Dose: 0, 625, 1250 PPM IN DIET): inactive; negative; carcinogen call (Species: RAT, Strain/Sex: F344/FEMALE, Route: ORAL, Dose: 0, 625, 1250 PPM IN DIET, Dose: 0, 625, 1250 PPM IN DIET): inactive; negative; carcinogen call (Species: RAT, Strain/Sex: F344/MALE, Route: ORAL, Dose: 0, 625, 1250 PPM IN DIET, Dose: 0, 625, 1250 PPM IN DIET): inactive; negative

Question: c1ccc2c(c1)ccc1c3ccccc3sc21 was tested. Which carcinogen call (Species: RAT, Strain/Sex: OSBORNE-MENDEL/FEMALE, Route: INTRAPULMONARY IMPLANT, Dose: 0, 1, 3, 6 MG IN BEESWAX AND TRIOCTANOIN IMPLANTED IN LUNG (STUDY DURATION: 141 WK), Dose: 0, 1, 3, 6 MG IN BEESWAX AND TRIOCTANOIN IMPLANTED IN LUNG (STUDY DURATION: 141 WK), Tumor Site: Type of Lesion: LUNG: CARCINOMA) did it give?
Answer: Its carcinogen call is “active; positive”.

Question: How did the carcinogen call (Species: MOUSE, Strain/Sex: SWISS/FEMALE, Route: GAVAGE, Dose: 0, 3 PPM IN 0.3 ML PHYSIOLOGICAL SALINE 2/WK FOR 22 MO (STUDY DURATION: 22 MO), Tumor Site: Type of Lesion: BREAST: ADENOCARCINOMA, SKIN: SEBACEOUS ADENOMA) turn out when C=C1C[C@]23C[C@@]1(O)CC[C@H]2[C@@]12C=C[C@H](O)[C@@](C)(C(=O)O1)[C@H]2[C@@H]3C(=O)O was run?
Answer: Its carcinogen call is “active; positive”.

Question: And the carcinogen call (Species: MOUSE, Strain/Sex: SWISS/MALE, Route: GAVAGE, Dose: 0, 3 PPM IN 0.3 ML PHYSIOLOGICAL SALINE 2/WK FOR 22 MO (STUDY DURATION: 22 MO), Tumor Site: Type of Lesion: SKIN: SEBACEOUS ADENOMA, LUNG: TUMOR)?
Answer: Its carcinogen call is “active; positive”.
